Laboratory results: patent publication US4616081A, “Cephalosporin compounds” (Asahi Kasei Kogyo Kabushiki Kaisha, priority 1982, dated 1986)

Legend:
Staph. pyogenes NY5 = assay: MIC against Staph. pyogenes NY5; format: cell-based
E. coli W3630 PS3 = assay: MIC against E. coli W3630 PS3; format: cell-based
Procedure: (§1) Nextly, antibacterial activity or minimum inhibitory concentration (MIC) was measured and the results are shown in Table 1 with respect to the following representative compounds according to the present invention. [drawing 19]
(§2) With respect to Compound Nos. 14 and 15, antibacterial activity or minimum inhibitory concentration (MIC) was measured and the results are shown in Table 2. [drawing 21]

Staph. aureus MS27 = assay: MIC against Staph. aureus MS27; format: cell-based
Procedure: as §1, §2

[1] = tested on: Enterobact. aerogenes 0655; assay: MIC against Enterobact. aerogenes 0655; format: cell-based
Procedure: as §1, §2

Proteus morganii 0239 = assay: MIC against Proteus morganii 0239; format: cell-based
Procedure: as §1, §2

[2] = tested on: Klebs. pneumoniae ATCC 10031; assay: MIC against Klebs. pneumoniae ATCC 10031; format: cell-based
Procedure: as §1, §2

Sarcina lutea ATCC 9341 = assay: MIC against Sarcina lutea ATCC 9341; format: cell-based
Procedure: as §1, §2

[3] = tested on: Enterobact. cloacae GN336; assay: MIC against Enterobact. cloacae GN336; format: cell-based
Procedure: as §1, §2

Shigella sonnei E33 = assay: MIC against Shigella sonnei E33; format: cell-based
Procedure: as §1, §2

[4] = tested on: Citrobact. freundii GN346; assay: MIC against Citrobact. freundii GN346; format: cell-based
Procedure: as §1, §2

Serratia marcescens = assay: MIC against Serratia marcescens; format: cell-based
Procedure: as §1, §2

E. coli NIHJ-JC2 = assay: MIC against E. coli NIHJ-JC2; format: cell-based
Procedure: as §1, §2

Staph. aureus ATCC 6538P = assay: MIC against Staph. aureus ATCC 6538P; format: cell-based
Procedure: as §1, §2

[5] = tested on: Salm. enteritidis Gaertner; assay: MIC against Salm. enteritidis Gaertner; format: cell-based
Procedure: as §1, §2

E. coli W3630 = assay: MIC against E. coli W3630; format: cell-based
Procedure: as §1, §2

Proteus rettgeri ACR = assay: MIC against Proteus rettgeri ACR; format: cell-based; conditions: Bacterial count inoculated 10^6 cells/ml
Procedure: as §1, §2

Ps. aeruginosa 0812 M2 = assay: MIC against Ps. aeruginosa 0812 M2; format: cell-based; conditions: Bacterial count inoculated 10^6 cells/ml
Procedure: as §1, §2

[6] = maximum blood concentration after oral administration in Wister rats (HPLC and Bioassay); format: in vivo; conditions: Wister rat, fasted, 30 mg/kg, solution of pH 7 in phosphate buffer
Procedure: Further in the compounds according to the present invention, intestinal absorption is improved by the introduction of amino acids at the 3-position thereof. For example, comparison of the maximum blood concentration of the Compound Nos. 2, 3, 7, 8, 14, 15 and 23 with that of Comparative Compound (b) establishes and affirms the effects, as is shown below. In the above test, the method for measurement of blood concentration was as follows. Rate: Wister rat weighing 170 to 220 g Dose: 30 mg/kg Wister rats were fasted from the previous night but freely accessible to water. Each of drugs was administered as a solution of pH 7 in a phosphate buffer, when orally administered. The blood concentration was measured in accordance with the High Performance Liquid Chromatography (HPLC) method and the Bioassay method by using E. coli as bacteria for test.

Strept. pyogenes NY5 = assay: MIC against Strept. pyogenes NY5; format: cell-based; conditions: Bacterial count inoculated 10^6 cells/ml
Procedure: as §1, §2

[7] = acute toxicity test using mice, intraperitoneal; conditions: mouse, in vivo, ip
Description: In addition to excellent antibacterial activity, the compounds of the present invention are low in toxicity. For example, in acute toxicity test using mice, the following results were obtained with Compound Nos. 2, 3, 7, 14, 15 and 23 which were intraperitoneally administered.

[8] = Bacterial count inoculated 10^6 cells/ml
[9] = Bacterial count inoculated 10^8 cells/ml

Row | SMILES | Minimum Inhibitory Concentration (MIC) (Staph. pyogenes NY5; [8]) | Minimum Inhibitory Concentration (MIC) (Staph. pyogenes NY5; [9]) | Minimum Inhibitory Concentration (MIC) (E. coli W3630 PS3; [8]) | Minimum Inhibitory Concentration (MIC) (E. coli W3630 PS3; [9]) | Minimum Inhibitory Concentration (MIC) (Staph. aureus MS27; [8]) | Minimum Inhibitory Concentration (MIC) (Staph. aureus MS27; [9]) | Minimum Inhibitory Concentration (MIC) [1, 8] | Minimum Inhibitory Concentration (MIC) [1, 9] | Minimum Inhibitory Concentration (MIC) (Proteus morganii 0239; [8]) | Minimum Inhibitory Concentration (MIC) (Proteus morganii 0239; [9]) | Minimum Inhibitory Concentration (MIC) [2, 8] | Minimum Inhibitory Concentration (MIC) (Sarcina lutea ATCC 9341; [8]) | Minimum Inhibitory Concentration (MIC) [3, 8] | Minimum Inhibitory Concentration (MIC) (Shigella sonnei E33; [8]) | Minimum Inhibitory Concentration (MIC) [4, 8] | Minimum Inhibitory Concentration (MIC) (Serratia marcescens; [8]) | Minimum Inhibitory Concentration (MIC) (E. coli NIHJ-JC2; [8]) | Minimum Inhibitory Concentration (MIC) (Staph. aureus ATCC 6538P; [8]) | Minimum Inhibitory Concentration (MIC) [5, 8] | Minimum Inhibitory Concentration (MIC) (E. coli W3630; [8]) | also measured
1 | CCN1CCN(C(=O)NC(C(=O)NC2C(=O)N3C(C(=O)O)=C(CSc4nnnn4C)CSC23)c2ccc(O)cc2)C(=O)C1=O (stereo not drawn) [Comparative Compound (c), reference compound] | ≤ 0.2 | 0.4 | ≤ 0.2 | 25 | 3.1 | 50 | 0.8 | > 100 | 0.8 | > 100 | ≤ 0.2 | ≤ 0.2 | ≤ 0.2 | ≤ 0.2 | 50 | 0.8 | ≤ 0.2 | 1.6 | 0.4 | 0.4 | Minimum Inhibitory Concentration (MIC) [2, 9]: > 100; Minimum Inhibitory Concentration (MIC) (Sarcina lutea ATCC 9341; [9]): ≤ 0.2; Minimum Inhibitory Concentration (MIC) [3, 9]: 50; Minimum Inhibitory Concentration (MIC) (Shigella sonnei E33; [9]): ≤ 0.2; Minimum Inhibitory Concentration (MIC) [4, 9]: > 100; Minimum Inhibitory Concentration (MIC) (Serratia marcescens; [9]): > 100; Minimum Inhibitory Concentration (MIC) (E. coli NIHJ-JC2; [9]): 6.3; Minimum Inhibitory Concentration (MIC) (Staph. aureus ATCC 6538P; [9]): 1.6; Minimum Inhibitory Concentration (MIC) [5, 9]: 50; Minimum Inhibitory Concentration (MIC) (E. coli W3630; [9]): 25
2 | CO/N=C(\C(=O)N[C@@H]1C(=O)N2C(C(=O)O)=C(CSc3nc(C(=O)O)c(N)n3C)CS[C@H]12)c1csc(N)n1 [Compound No. 2] |  |  | 0.2 |  | 6.3 |  | 1.6 |  | 0.1 |  | 0.1 | 0.2 | 0.8 | 0.4 | 25 | 0.2 | 0.2 | 3.1 | 0.2 | 0.2 | Minimum Inhibitory Concentration (MIC) (Proteus rettgeri ACR): 0.2; Minimum Inhibitory Concentration (MIC) (Ps. aeruginosa 0812 M2): 6.3; Cmax [6]: 16000 ng/mL; Minimum Inhibitory Concentration (MIC) (Strept. pyogenes NY5): 0.1; LD50 [7]: 9000 to 10000 mg/kg
3 | CO/N=C(\C(=O)N[C@@H]1C(=O)N2C(C(=O)O)=C(CSc3nnc(CC(N)C(=O)O)s3)CS[C@H]12)c1csc(N)n1 (stereo partly drawn) [Compound No. 7] | ≤ 0.2 | 0.2 | ≤ 0.2 | 1.6 | 3.1 | 3.1 | ≤ 0.2 | 25 | ≤ 0.2 | 25 | ≤ 0.2 | ≤ 0.2 | ≤ 0.2 | ≤ 0.2 | 50 | ≤ 0.2 | 0.4 | 1.6 | ≤ 0.2 | ≤ 0.2 | Minimum Inhibitory Concentration (MIC) [2, 9]: 0.8; Minimum Inhibitory Concentration (MIC) (Sarcina lutea ATCC 9341; [9]): ≤ 0.2; Minimum Inhibitory Concentration (MIC) [3, 9]: 12.5; Minimum Inhibitory Concentration (MIC) (Shigella sonnei E33; [9]): 0.2; Cmax [6]: 7000 ng/mL; Minimum Inhibitory Concentration (MIC) [4, 9]: 100; Minimum Inhibitory Concentration (MIC) (Serratia marcescens; [9]): 100; Minimum Inhibitory Concentration (MIC) (E. coli NIHJ-JC2; [9]): 0.2; LD50 [7]: 9000 to 12000 mg/kg; Minimum Inhibitory Concentration (MIC) (Staph. aureus ATCC 6538P; [9]): 3.1; Minimum Inhibitory Concentration (MIC) [5, 9]: 3.1; Minimum Inhibitory Concentration (MIC) (E. coli W3630; [9]): 0.8
